Laboratory results published in paper PMC9176662, “Design, synthesis, molecular modeling and biological evaluation of novel Benzoxazole-Benzamide conjugates via a 2-Thioacetamido linker as potential anti-proliferative agents, VEGFR-2 inhibitors and apoptotic inducers” (Journal of Enzyme Inhibition and Medicinal Chemistry, 2022).

Tests used:
Assay type in all cases: cell-based, human
[1] = tested on: MCF-7 cells; experiment: Anti-proliferative activity, SRB assay, MCF-7; settings: for IC50: SRB assay, 72 h exposure, mean ± SD of three separate experiments; for MCF-7 SI (selectivity index): ratio of IC50 for normal cells (WI-38) to IC50 for MCF-7
Source text: Several of these derivatives were reported as acting as competitive inhibitors of different tyrosine kinases, with potent cytotoxic activity against various cell lines[58]^,[59]. […] Thus, in this study a novel series of benzoxazole-benzamide conjugates was initially evaluated for their potential anti-cancer activity against colon cancer cell line (HCT-116), breast cancer cell line (MCF-7) and normal human fibroblasts (WI-38), using the Sulforhodamine B colorimetric (SRB) assay.
2.1. Anti-proliferative activity against HCT-116 and MCF-7 human cancer cells lines.
The sulforhodamine B (SRB) assays were performed according to Skehan et al..
Briefly, exponentially growing cells were trypsinized, counted and seeded at the appropriate densities (5000 cells/100 μL/ well) into 96-well microtiter plates. Cells were incubated in a humidified atmosphere at 37 °C for 24 h. Then, the cells were exposed to the tested compounds at the desired concentrations (0.01, 0.1, 1, 10, and 100 μM) or to 1% dimethyl sulfoxide (DMSO) for 72 h. At the end of the treatment period, the media were removed, and the cells were fixed with 10% trichloroacetic acid at 4 °C for 1 h. Following, the cells were washed with tap water four times and incubated with SRB 0.4% for 30 min. Excess dye was removed by washing repeatedly with 1% (vol/vol) acetic acid. The protein-bound dye was dissolved in 10 mM Tris base solution for (optical density) OD determination at 510 nm using a Spectra Max plus Microplate Reader (Molecular Devices, CA). Cell viability was expressed relative to the untreated control cells. […]

[2] = tested on: Bcl-xL; experiment: Western blot of Bcl-xL expression in MCF-7; settings: MCF-7, Western blot, normalised to β-actin
Source text: (§1) It is well known that the anti-apoptotic proteins Bcl-2 and Bcl-xL are mainly overexpressed in various types of cancer, causing survival of cancer cells and/or drug resistance. Therefore, inhibition of these proteins expression leads to cancer cell death and has been used as a strategy for anticancer drug development. In this study, the impact of compounds 1 and 11 on Bcl-2 and Bcl-xL expression in HCT-116 and MCF-7 cancer cell lines was examined using Western blot analysis and all the data were normalised to β-actin (Figure 9).
(§2) 2.5. Impact of compounds 1 and 11 on the level of anti-apoptotic markers (Bcl-2, and Bcl-xL).
(§3) Gel electrophoresis and immuno-blot analysis of proteins (Western Blot) method was used to examine the effect of compounds 1 and 11 on the level of anti-apoptotic markers (Bcl-2, and Bcl-xL). […]
(§4) The cells were then immediately frozen at −20 °C for 1 h for further lysis and collected by cell scraper and sonicated 2×10s. Total protein concentrations were determined colorimetrically using Bradford method before proceeding to the western blotting. […] Briefly, the membranes were incubated for 1 min with a mixture of equal volumes from ECL solution A and ECL solution B. The chemiluminescent signals were captured using a CCD camera-based imager (Chemi Doc imager, Biorad, USA), and the band intensities were then measured with β-actin as an internal reference protein. […]

[3] = tested on: Bcl-xL; experiment: Western blot of Bcl-xL expression in HCT-116; settings: HCT-116, Western blot, normalised to β-actin
Source text: as §1, §2, §3, §4

[4] = tested on: MCF-7 cells; experiment: Cell cycle analysis by DNA flow cytometry, MCF-7; settings: MCF7, 24 h, compound at its IC50 (supplement: 10 μM); for %Pre-G1: control 3.41; for %G2-M: control 16.53; for %S: control 28.33; for %G0-G1: control 55.14
Experimental: (§5) It is clearly known that generally the cytotoxic agents exert their anti-proliferative effect via cell cycle arrest at a specific phase. In the present study, due to the excellent in-vitro anti-proliferative activity of conjugates 1 and 11 against both HCT-116 and MCF-7 cancer cell lines as well as their excellent VEGFR-2 inhibitory activities, cell cycle analysis have been carried out for both compounds. […]
(§6) 2.3. Cell cycle analysis.
(§7) HCT-116 and MCF-7 cells were seeded at concentrations of 1 x 10^5 cells per well in a 6-well plate, and then incubated for 24 h. The cells were treated for 24 h with vehicles (0.1 percent DMSO) or 10 μM of compounds 1 or 11. Using ice-cold, 70 percent ethanol at 4 °C, cells were harvested and fixed for 12 h. Ethanol was removed, and the cells were washed by cold PBS.
(§8) Then, the cells were incubated in 0.5 mL of PBS containing 1 mg/mL Ranse for 30 min at 37 °C.
(§9) In the dark, the cells were stained with propidium iodide for 30 min. Flow cytometer was then used to detect contents of DNA [63]. […]

[5] = tested on: HCT-116 cells; experiment: Cell cycle analysis by DNA flow cytometry, HCT-116; settings: HCT116, 24 h, compound at its IC50 (supplement: 10 μM); for %Pre-G1: control 4.52; for %G2-M: control 18.93; for %S: control 31.56; for %G0-G1: control 49.51
Experimental: as §5, §6, §7, §8, §9

Structure (SMILES)	IC50 ([1]; Homo sapiens, MCF7, 72 h) [µM]	IC50 [1] [µM]	MCF-7 SI (selectivity index) [1]	Bcl-xL expression [2]	Bcl-xL expression [3]	%Pre-G1 [4] [%]	%G2-M [4] [%]	%S [4] [%]	%G0-G1 [4] [%]	%Pre-G1 [5] [%]	%G2-M [5] [%]	%S [5] [%]	%G0-G1 [5] [%]
O=C(CSc1nc2ccccc2o1)Nc1ccc(C(=O)NC2CCCCC2)cc1 [Compound 1]	7.8 ± 0.015	7.2 ± 0.01	5.8	inhibited	inhibited	19.78	29.62	29.72	40.66	15.36	24.41	33.25	42.34
O=C(CSc1nc2cc(Cl)ccc2o1)Nc1ccc(C(=O)Nc2ccc(Cl)cc2)cc1 [Compound 11]	16.6 ± 0.013		6.2	inhibited	inhibited	16.93	25.24	30.92	43.84	17.41	28.44	26.19	45.37
